Patent US8367614B2, “Rheumatoid arthritis-preventive agent for oral intake” (Calpis Co., Ltd, priority 2006, dated 2013)

Legend:
[1] = tested on: adjuvant arthritis; test: Adjuvant arthritis in rats, arthritis score (Example 1 and Comparative Examples 1-3); assay type: in vivo, Female Lewis rats; settings: test material 10% in 0.5% CMC, 1 ml/100 g oral once a day, average ± standard error
[2] = tested on: adjuvant arthritis; test: Adjuvant arthritis in rats, arthritis score (Example 2)

Compound	Arthritis score ([1]; day 0 to 21, day 0, max 12 points)	Arthritis score ([1]; day 5)	Arthritis score ([1]; day 9)	Arthritis score ([1]; day 14)	Arthritis score ([1]; day 19)	Arthritis score ([1]; day 22)	Arthritis score ([2]; Ibuprofen 0.3% in 0.5% CMC, 1 ml/100 g oral once a day, day 0)	Arthritis score ([2]; Ibuprofen 0.3%, oral once a day, day 5)	Arthritis score ([2]; Ibuprofen 0.3%, oral once a day, day 9)	Arthritis score ([2]; Ibuprofen 0.3%, oral once a day, day 14)	Arthritis score ([2]; Ibuprofen 0.3%, oral once a day, day 19)	Arthritis score ([2]; Ibuprofen 0.3%, oral once a day, day 21)
sodium caseinate [Comp. Ex. 2]	0.00	0.00	1.25 ± 0.37	8.25 ± 0.62	10.50 ± 0.33	10.38 ± 0.32	–	–	–	–	–	–
CC(C)Cc1ccc(C(C)C(=O)O)cc1 (stereo not drawn) [Ibuprofen]	–	–	–	–	–	–	0	0	0.1 ± 0.1	6.5 ± 0.6	9.0 ± 0.5	9.5 ± 0.3
